Source: patent US10413575B2, “Pharmaceutical composition for preventing or treating inflammatory diseases, containing Lactococcus chungangensis as active ingredient” (CHUNG-ANG UNIVERSITY INDUSTRY-ACADEMIC COOPERATION …, priority 2015, dated 2019)

Assays:
IgE [1] = assay: Immunoglobulin IgE measurement in serum (ELISA), BALB/c mice; assay type: in vivo; conditions: skin application, compared with the DNCB-induced group
Method: (§2) After the ending of the treatment with test materials, BALB/c and NC/Nga mice of the five groups were sacrificed, and blood was collected from the heart. Serum was isolated from the blood to measure IgE. […] Absorbance was measured at 450 nm using a microplate reader to determine IgE protein level.

IgE [2] = assay: Immunoglobulin IgE measurement in serum (ELISA), NC/Nga mice; assay type: in vivo; conditions: skin application
Method: as §2

[3] = tested on: DNCB-induced atopic BALB/c mice; assay: Visual evaluation of DNCB-induced atopic BALB/c mice; assay type: in vivo; parameters: key to dryness/scarring / edema / erosion/excoriation / erythema/hemorrhage: 0=absence; 1=mild; 2=moderate; 3=severe; key to Total severity score / Mean severity score: sum of 4 signs each 0=absence to 3=severe; conditions: skin application
Excerpt: (§1) Mice were divided into a total of five groups, a non-treatment (normal) group, a DNCB group, a Tacrolimus skin application group, a Lactococcus chungangensis skin application group, and a Lactococcus chungangensis oral administration group. Then, 0.1 g of hair removal cream was applied on the back and neck of BALB/c and NC/Nga mice, respectively, and hairs were removed using soft tissue paper to avoid wounds. After the mice were left for 5 days to heal minor wounds, 1% DNCB 200 (acetone:olive oil=3:1) was applied to the back and ears three times a week for two weeks to induce atopy. After atopy induction, Lactococcus chungangensis was applied to diseased parts at 10^9 cell/mouse twice a week for four weeks, while Lactococcus chungangensis was administered to oral cavity at 10^9 cell/mouse twice a week for four weeks. For efficacy comparison, Tacrolimus in use as an atopy medicine was used. Tacrolimus was applied to atopy diseased parts at 100 mg/kg twice a week for four weeks. Visual evaluation was conducted to determine a treatment effect in each of a Tacrolimus skin application group, a Lactococcus chungangensis skin application group, and a Lactococcus chungangensis oral administration group. Visual evaluation was conducted by evaluating the skin condition in four stages (0=absence, 1=mild, 2=moderate, 3=severe) according to the severity of erythema/hemorrhage, dryness/scarring, edema, and erosion/excoriation as evaluation indexes. A severity score of about 12 point or more was determined that the atopy symptoms reach the highest peak. The results are shown in Tables 1 to 5 for BALB/c mice, and Tables 6 to 10 for NC/Nga mice.

[4] = tested on: IL-4, IL-5, IL-12, IFN-γ, TNF-α, and TARC; assay: Chemokine and cytokine protein levels in serum (ELISA); assay type: in vivo; conditions: BALB/c and NC/Nga, skin application, vs DNCB-induced atopy mice
Excerpt: Mice were divided into a total of five groups, a non-treatment (normal) group, a DNCB group, a Tacrolimus skin application group, a Lactococcus chungangensis skin application group, and a Lactococcus chungangensis oral administration group. Then, 0.1 g of hair removal cream was applied on the back and neck of BALB/c and NC/Nga mice, respectively, and hairs were removed using soft tissue paper to avoid wounds. After the mice were left for 5 days to heal minor wounds, 1% DNCB 200 (acetone:olive oil=3:1) was applied to the back and ears three times a week for two weeks to induce atopy. After atopy induction, Lactococcus chungangensis was applied to diseased parts at 10^9 cell/mouse twice a week for four weeks, while Lactococcus chungangensis was administered to oral cavity at 10^9 cell/mouse twice a week for four weeks. […] Tacrolimus was applied to atopy diseased parts at 100 mg/kg twice a week for four weeks.
In addition, the protein level changes of IL-4, IL-5, IL-12, IFN-γ, TNF-α, and TARC in the serum isolated from the blood taken from the heart of each of BALB/c mice and NC/Nga mice were measured using IL-4 Quantikine Immunoassay Kit, IL-5 Quantikine Immunoassay Kit, IL-12 Quantikine Immunoassay Kit, TNF-α Quantikine Immunoassay Kit, CCL17/TARC Quantikine Immunoassay Kit (R&D Systems, Minneapolis, Minn., USA), respectively, and the absorbance was determined at 450 nm by using a microplate reader.

[5] = tested on: DNCB-induced atopic BALB/c mice and NC/Nga mice; assay: Histopathological test (H&E) of dorsal skin tissue and ears; assay type: in vivo; conditions: skin application, vs DNCB-induced atopic mice
Excerpt: Mice were divided into a total of five groups, a non-treatment (normal) group, a DNCB group, a Tacrolimus skin application group, a Lactococcus chungangensis skin application group, and a Lactococcus chungangensis oral administration group. Then, 0.1 g of hair removal cream was applied on the back and neck of BALB/c and NC/Nga mice, respectively, and hairs were removed using soft tissue paper to avoid wounds. After the mice were left for 5 days to heal minor wounds, 1% DNCB 200 (acetone:olive oil=3:1) was applied to the back and ears three times a week for two weeks to induce atopy. After atopy induction, Lactococcus chungangensis was applied to diseased parts at 10^9 cell/mouse twice a week for four weeks, while Lactococcus chungangensis was administered to oral cavity at 10^9 cell/mouse twice a week for four weeks. For efficacy comparison, Tacrolimus in use as an atopy medicine was used. Tacrolimus was applied to atopy diseased parts at 100 mg/kg twice a week for four weeks.
After the treatment of test materials, the dorsal skin tissue (1.5×1.5 cm) and ears of BALB/c mice and NC/Nga mice of the test and control groups were taken off, and fixed in 10% paraformaldehyde for 24 hours. The tissues were sufficiently hardened in paraffin, and sliced into five pieces to prepare slide glasses. […]

[6] = tested on: IL-4, IL-5, IL-12, IFN-γ, TNF-α, and TARC; assay: Chemokine and cytokine mRNA expression in skin tissues (reverse transcription PCR); assay type: in vivo, BALB/c mice and NC/Nga mice; conditions: skin application
Method: After the ending of the treatment of the BALB/c and NC/Nga mice with test materials, the BALB/c and NC/Nga mice of the DNCB-induced atopic control group, the Tacrolimus skin application group, the Lactococcus chungangensis skin application group, and the Lactococcus chungangensis oral administration group were sacrificed. The skin tissues were extracted, and Trizol was added thereto, and the skin tissues were homogenized using a homogenizer until dissolved, and RNA was extracted from the homogenized tissues. Specifically, Trizol was added to the skin tissues extracted from BALB/c mice and NC/Nga mice of each of the control and test groups, and chloroform (CHCl3) was added thereto and mixed. Then, the mixture was allowed to stand for 10 minutes and centrifuged. The centrifuged supernatant was recovered, mixed with the same amount of 2-propanol, allowed to stand for 10 minutes, centrifuged again, washed with 80% EtOH, and dried, to thereby obtain RNA. cDNA was obtained by reverse transcription PCR using AMV reverse transcriptase, dNTP (Promega, Madison, Wis.), EX Taq DNA polymerase (Takara Shuzou, Kyoto, Japan), and the obtained cDNA was used to investigate the mRNA expression levels of atopic-related chemokines and cytokines. Specifically, PCR was performed using the primer pairs described in Table 5 below for chemokines and cytokines IL-4, IL-5, IL-12, IFN-γ, TNF-α, and TARC and control GAPDH, respectively. The PCR was performed for 30 cycles of 1 minute at 94° C., 30 seconds at 95° C., 30 seconds at 55-65° C., and 3 minutes at 70° C.

[7] = tested on: DNCB-induced atopic NC/Nga mice; assay: Visual evaluation of DNCB-induced atopic NC/Nga mice; assay type: in vivo; parameters: key to dryness/scarring / edema / erosion/excoriation / erythema/hemorrhage: 0=absence; 1=mild; 2=moderate; 3=severe; key to Total severity score / Mean severity score: sum of 4 signs each 0=absence to 3=severe; conditions: skin application
Excerpt: as §1

For C=CC[C@@H]1/C=C(\C)C[C@H](C)C[C@H](OC)[C@H]2O[C@@](O)(C(=O)C(=O)N3CCCC[C@H]3C(=O)O[C@H](/C(C)=C/[C@@H]3CC[C@@H](O)[C@H](OC)C3)[C@H](C)[C@@H](O)CC1=O)[C@H](C)C[C@@H]2OC [Tacrolimus], the “inhibition of IgE production” value (IgE [1]) was 48%, the “inhibition of IgE production” value (IgE [2]) was 62% and the “skin condition observed by the naked eye” value [3] was “remarkably improved”. It also gave a Mean severity score ([3]; 1 Week) of 5, a Total severity score ([3]; 1 Week, evaluation 1) of 4 and a dryness/scarring ([3]; 1 Week, evaluation 1) of 1. For the same compound, the edema ([3]; 1 Week, evaluation 1) was 0, the erosion/excoriation ([3]; 1 Week, evaluation 1) was 1 and the erythema/hemorrhage ([3]; 1 Week, evaluation 1) was 2. The Total severity score ([3]; 1 Week, evaluation 2) was 6, the dryness/scarring ([3]; 1 Week, evaluation 2) was 1 and the edema ([3]; 1 Week, evaluation 2) was 1. It also gave an erosion/excoriation ([3]; 1 Week, evaluation 2) of 2, an erythema/hemorrhage ([3]; 1 Week, evaluation 2) of 2 and a Mean severity score ([3]; 2 Weeks) of 8. The Total severity score ([3]; 2 Weeks, evaluation 3) was 8, the dryness/scarring ([3]; 2 Weeks, evaluation 3) was 2 and the edema ([3]; 2 Weeks, evaluation 3) was 2. It also gave an erosion/excoriation ([3]; 2 Weeks, evaluation 3) of 2, an erythema/hemorrhage ([3]; 2 Weeks, evaluation 3) of 2 and a Total severity score ([3]; 2 Weeks, evaluation 4) of 8. For the same compound, the dryness/scarring ([3]; 2 Weeks, evaluation 4) was 2, the edema ([3]; 2 Weeks, evaluation 4) was 2 and the erosion/excoriation ([3]; 2 Weeks, evaluation 4) was 2. For the same compound, the erythema/hemorrhage ([3]; 2 Weeks, evaluation 4) was 2, the Mean severity score ([3]; 3 Weeks) was 10.5 and the Total severity score ([3]; 3 Weeks, evaluation 5) was 11. The dryness/scarring ([3]; 3 Weeks, evaluation 5) was 2, the edema ([3]; 3 Weeks, evaluation 5) was 3 and the erosion/excoriation ([3]; 3 Weeks, evaluation 5) was 3. It also gave an erythema/hemorrhage ([3]; 3 Weeks, evaluation 5) of 3, a Total severity score ([3]; 3 Weeks, evaluation 6) of 10 and a dryness/scarring ([3]; 3 Weeks, evaluation 6) of 2. It also gave an edema ([3]; 3 Weeks, evaluation 6) of 2, an erosion/excoriation ([3]; 3 Weeks, evaluation 6) of 3 and an erythema/hemorrhage ([3]; 3 Weeks, evaluation 6) of 3. The Mean severity score ([3]; 4 Weeks) was 9.5, the Total severity score ([3]; 4 Weeks, evaluation 7) was 10 and the dryness/scarring ([3]; 4 Weeks, evaluation 7) was 3. For the same compound, the edema ([3]; 4 Weeks, evaluation 7) was 2, the erosion/excoriation ([3]; 4 Weeks, evaluation 7) was 3 and the erythema/hemorrhage ([3]; 4 Weeks, evaluation 7) was 3. For the same compound, the Total severity score ([3]; 4 Weeks, evaluation 8) was 9, the dryness/scarring ([3]; 4 Weeks, evaluation 8) was 1 and the edema ([3]; 4 Weeks, evaluation 8) was 2. The erosion/excoriation ([3]; 4 Weeks, evaluation 8) was 3, the erythema/hemorrhage ([3]; 4 Weeks, evaluation 8) was 3 and the Mean severity score ([3]; 5 Weeks) was 6. It also gave a Total severity score ([3]; 5 Weeks, evaluation 9) of 7, a dryness/scarring ([3]; 5 Weeks, evaluation 9) of 2 and an edema ([3]; 5 Weeks, evaluation 9) of 2. It also gave an erosion/excoriation ([3]; 5 Weeks, evaluation 9) of 1, an erythema/hemorrhage ([3]; 5 Weeks, evaluation 9) of 2 and a Total severity score ([3]; 5 Weeks, evaluation 10) of 5. For the same compound, the dryness/scarring ([3]; 5 Weeks, evaluation 10) was 2, the edema ([3]; 5 Weeks, evaluation 10) was 1 and the erosion/excoriation ([3]; 5 Weeks, evaluation 10) was 1. The erythema/hemorrhage ([3]; 5 Weeks, evaluation 10) was 1, the Mean severity score ([3]; 6 Weeks) was 2.5 and the Total severity score ([3]; 6 Weeks, evaluation 11) was 4. It also gave a dryness/scarring ([3]; 6 Weeks, evaluation 11) of 1, an edema ([3]; 6 Weeks, evaluation 11) of 1 and an erosion/excoriation ([3]; 6 Weeks, evaluation 11) of 1. For the same compound, the erythema/hemorrhage ([3]; 6 Weeks, evaluation 11) was 1, the Total severity score ([3]; 6 Weeks, evaluation 12) was 1 and the dryness/scarring ([3]; 6 Weeks, evaluation 12) was 1. The edema ([3]; 6 Weeks, evaluation 12) was 0, the erosion/excoriation ([3]; 6 Weeks, evaluation 12) was 0 and the erythema/hemorrhage ([3]; 6 Weeks, evaluation 12) was 0. The “protein level of IFN-γ” value [4] was “significantly reduced”, the “protein level of IL-4” value [4] was “significantly reduced” and the “protein level of IL-5” value [4] was “significantly reduced”. For the same compound, the “protein level of IL-12” value [4] was “significantly reduced”, the “protein level of TARC” value [4] was “significantly reduced” and the “protein level of TNF-α” value [4] was “significantly reduced”. The “dead skin cell exfoliation, epidermal hypertrophy, and hyperkeratosis” value [5] was “significantly reduced”, the “mRNA expression level of IFN-γ” value [6] was “reduced” and the “mRNA expression level of IL-4” value [6] was “reduced”. The “mRNA expression level of IL-5” value [6] was “reduced”, the “mRNA expression level of IL-12” value [6] was “reduced” and the “mRNA expression level of TARC” value [6] was “reduced”. For the same compound, the “mRNA expression level of TNF-α” value [6] was “reduced”, the Mean severity score ([7]; 1 Week) was 5.5 and the Total severity score ([7]; 1 Week, evaluation 1) was 5. The dryness/scarring ([7]; 1 Week, evaluation 1) was 2, the edema ([7]; 1 Week, evaluation 1) was 1 and the erosion/excoriation ([7]; 1 Week, evaluation 1) was 1. For the same compound, the erythema/hemorrhage ([7]; 1 Week, evaluation 1) was 1, the Total severity score ([7]; 1 Week, evaluation 2) was 6 and the dryness/scarring ([7]; 1 Week, evaluation 2) was 2. It also gave an edema ([7]; 1 Week, evaluation 2) of 1, an erosion/excoriation ([7]; 1 Week, evaluation 2) of 2 and an erythema/hemorrhage ([7]; 1 Week, evaluation 2) of 1. It also gave a Mean severity score ([7]; 2 Weeks) of 10.5, a Total severity score ([7]; 2 Weeks, evaluation 3) of 11 and a dryness/scarring ([7]; 2 Weeks, evaluation 3) of 3. It also gave an edema ([7]; 2 Weeks, evaluation 3) of 3, an erosion/excoriation ([7]; 2 Weeks, evaluation 3) of 2 and an erythema/hemorrhage ([7]; 2 Weeks, evaluation 3) of 3. For the same compound, the Total severity score ([7]; 2 Weeks, evaluation 4) was 10, the dryness/scarring ([7]; 2 Weeks, evaluation 4) was 3 and the edema ([7]; 2 Weeks, evaluation 4) was 2. The erosion/excoriation ([7]; 2 Weeks, evaluation 4) was 2, the erythema/hemorrhage ([7]; 2 Weeks, evaluation 4) was 3 and the Mean severity score ([7]; 3 Weeks) was 11.5. The Total severity score ([7]; 3 Weeks, evaluation 5) was 12, the dryness/scarring ([7]; 3 Weeks, evaluation 5) was 3 and the edema ([7]; 3 Weeks, evaluation 5) was 3. For the same compound, the erosion/excoriation ([7]; 3 Weeks, evaluation 5) was 3, the erythema/hemorrhage ([7]; 3 Weeks, evaluation 5) was 3 and the Total severity score ([7]; 3 Weeks, evaluation 6) was 11. The dryness/scarring ([7]; 3 Weeks, evaluation 6) was 3, the edema ([7]; 3 Weeks, evaluation 6) was 2 and the erosion/excoriation ([7]; 3 Weeks, evaluation 6) was 3. For the same compound, the erythema/hemorrhage ([7]; 3 Weeks, evaluation 6) was 3, the Mean severity score ([7]; 4 Weeks) was 11.5 and the Total severity score ([7]; 4 Weeks, evaluation 7) was 12. The dryness/scarring ([7]; 4 Weeks, evaluation 7) was 3, the edema ([7]; 4 Weeks, evaluation 7) was 3 and the erosion/excoriation ([7]; 4 Weeks, evaluation 7) was 3. For the same compound, the erythema/hemorrhage ([7]; 4 Weeks, evaluation 7) was 3, the Total severity score ([7]; 4 Weeks, evaluation 8) was 11 and the dryness/scarring ([7]; 4 Weeks, evaluation 8) was 3. For the same compound, the edema ([7]; 4 Weeks, evaluation 8) was 3, the erosion/excoriation ([7]; 4 Weeks, evaluation 8) was 2 and the erythema/hemorrhage ([7]; 4 Weeks, evaluation 8) was 3. It also gave a Mean severity score ([7]; 5 Weeks) of 11, a Total severity score ([7]; 5 Weeks, evaluation 9) of 11 and a dryness/scarring ([7]; 5 Weeks, evaluation 9) of 3. For the same compound, the edema ([7]; 5 Weeks, evaluation 9) was 2, the erosion/excoriation ([7]; 5 Weeks, evaluation 9) was 3 and the erythema/hemorrhage ([7]; 5 Weeks, evaluation 9) was 3. For the same compound, the Total severity score ([7]; 5 Weeks, evaluation 10) was 11, the dryness/scarring ([7]; 5 Weeks, evaluation 10) was 3 and the edema ([7]; 5 Weeks, evaluation 10) was 3. For the same compound, the erosion/excoriation ([7]; 5 Weeks, evaluation 10) was 2, the erythema/hemorrhage ([7]; 5 Weeks, evaluation 10) was 3 and the Mean severity score ([7]; 6 Weeks) was 9. For the same compound, the Total severity score ([7]; 6 Weeks, evaluation 11) was 10, the dryness/scarring ([7]; 6 Weeks, evaluation 11) was 3 and the edema ([7]; 6 Weeks, evaluation 11) was 2. The erosion/excoriation ([7]; 6 Weeks, evaluation 11) was 2, the erythema/hemorrhage ([7]; 6 Weeks, evaluation 11) was 3 and the Total severity score ([7]; 6 Weeks, evaluation 12) was 8. For the same compound, the dryness/scarring ([7]; 6 Weeks, evaluation 12) was 2, the edema ([7]; 6 Weeks, evaluation 12) was 2 and the erosion/excoriation ([7]; 6 Weeks, evaluation 12) was 2. For the same compound, the erythema/hemorrhage ([7]; 6 Weeks, evaluation 12) was 2.
